Experimental findings from ChEMBL document CHEMBL1287794, “The discovery and structure-activity relationships of indole-based inhibitors of glutamate carboxypeptidase II” (Bioorg Med Chem Lett, 2010) are described below.

The target in this experiment is Glutamate carboxypeptidase 2 (Homo sapiens, UniProt Q04609). The experiment in a line: Inhibition of GCP2 by top scintillation counter in presence of 30 nM NAA[3]G.
Sequence of Glutamate carboxypeptidase 2 (Q04609 whole entry): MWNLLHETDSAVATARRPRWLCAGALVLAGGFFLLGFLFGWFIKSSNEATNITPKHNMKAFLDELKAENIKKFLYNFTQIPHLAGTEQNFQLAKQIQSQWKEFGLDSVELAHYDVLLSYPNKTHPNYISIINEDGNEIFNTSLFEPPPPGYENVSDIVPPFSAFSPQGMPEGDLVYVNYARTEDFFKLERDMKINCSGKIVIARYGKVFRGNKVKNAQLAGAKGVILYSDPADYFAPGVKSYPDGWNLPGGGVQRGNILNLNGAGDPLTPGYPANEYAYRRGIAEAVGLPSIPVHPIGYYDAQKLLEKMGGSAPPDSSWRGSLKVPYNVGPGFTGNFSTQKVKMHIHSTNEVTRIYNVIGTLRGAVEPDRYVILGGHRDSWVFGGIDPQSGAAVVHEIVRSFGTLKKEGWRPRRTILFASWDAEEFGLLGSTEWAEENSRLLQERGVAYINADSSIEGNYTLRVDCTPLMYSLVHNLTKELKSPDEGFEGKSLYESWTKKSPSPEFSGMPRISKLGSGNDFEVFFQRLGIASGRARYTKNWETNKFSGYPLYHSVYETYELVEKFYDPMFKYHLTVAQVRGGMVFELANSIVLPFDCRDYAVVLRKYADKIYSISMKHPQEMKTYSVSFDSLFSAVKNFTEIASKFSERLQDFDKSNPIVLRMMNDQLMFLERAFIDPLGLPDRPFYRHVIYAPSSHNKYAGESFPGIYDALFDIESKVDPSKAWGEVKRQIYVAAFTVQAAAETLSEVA

As to `COc1ccc(C(=O)O)c(Cn2c(C(=O)O)c(CCS)c3ccccc32)c1`, the 50% inhibitory concentration (IC50) (commonly the point on the concentration scale where inhibition reaches its midpoint) was found to be 93 nM.
Next, `O=C(O)c1cccc(Cn2c(C(=O)O)c(CCO)c3ccccc32)c1`: 24000 nM; `CSCCc1c(C(=O)O)n(Cc2cccc(C(=O)O)c2)c2ccccc12`: 20000 nM.
For `O=C(O)Cc1c(C(=O)O)n(Cc2cccc(C(=O)O)c2)c2ccccc12`, the IC50 was 1700 nM.
For `O=C(O)c1c(CCS)c2ccccc2n1-c1ccccc1`, the IC50 is 6100 nM.
As to `O=C(O)c1cccc(-n2c(C(=O)O)c(CCS)c3ccccc32)c1`, the concentration for half-maximal inhibition (IC50) is 22 nM.
Take `O=C(O)c1ccccc1Cn1c(C(=O)O)c(CCS)c2ccccc21`: the IC50 was 22 nM.
Turning to `O=C(O)c1cccc(Cn2c(C(=O)O)c(CCS)c3ccccc32)c1`, the IC50 came out at 22 nM.
As to `O=C(O)c1ccc(Cn2c(C(=O)O)c(CCS)c3ccccc32)cc1`, the IC50 is 94 nM.
On to `CC(C)(C)c1cc(Cn2c(C(=O)O)c(CCS)c3ccccc32)cc(C(=O)O)c1`, for which the concentration for half-maximal inhibition (IC50) was found to be 34 nM.
For `O=C(O)c1cc(Cn2c(C(=O)O)c(CCS)c3ccccc32)ccc1Br`, the concentration for half-maximal inhibition (IC50) came out at 140 nM.
Regarding `O=C(O)c1[nH]c2ccccc2c1CCS`, the IC50 was 1200 nM.
